Results on 17 compounds are retold here after patent publication US8785467B2, “Alkoxy pyrimidine PDE10 inhibitors” (Merck Sharp & Dohme Corp., priority 2010, dated 2014).

pKi: −log10 of the molar value.

Chain of human PDE10A2 (Q9Y233 267-1055): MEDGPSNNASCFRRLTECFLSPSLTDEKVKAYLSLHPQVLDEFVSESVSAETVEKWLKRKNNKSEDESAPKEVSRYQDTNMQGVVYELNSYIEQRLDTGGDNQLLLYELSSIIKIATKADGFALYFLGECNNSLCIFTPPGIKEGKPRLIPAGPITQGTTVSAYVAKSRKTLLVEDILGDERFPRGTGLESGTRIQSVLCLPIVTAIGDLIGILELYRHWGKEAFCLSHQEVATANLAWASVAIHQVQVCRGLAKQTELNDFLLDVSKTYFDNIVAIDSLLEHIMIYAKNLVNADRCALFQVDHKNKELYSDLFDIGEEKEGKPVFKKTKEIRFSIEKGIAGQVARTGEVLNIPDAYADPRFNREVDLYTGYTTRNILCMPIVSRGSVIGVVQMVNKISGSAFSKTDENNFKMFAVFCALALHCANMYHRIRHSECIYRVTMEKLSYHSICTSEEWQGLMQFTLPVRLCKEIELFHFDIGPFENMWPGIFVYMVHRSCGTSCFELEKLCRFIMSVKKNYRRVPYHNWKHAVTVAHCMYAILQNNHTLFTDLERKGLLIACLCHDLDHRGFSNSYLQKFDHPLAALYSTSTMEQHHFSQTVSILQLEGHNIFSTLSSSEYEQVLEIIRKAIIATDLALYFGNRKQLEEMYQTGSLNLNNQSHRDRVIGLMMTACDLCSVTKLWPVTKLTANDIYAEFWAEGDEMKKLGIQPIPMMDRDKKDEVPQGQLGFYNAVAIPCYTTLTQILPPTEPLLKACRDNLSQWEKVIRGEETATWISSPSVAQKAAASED

In the test the target is human PDE10A2 (Homo sapiens (Human), UniProt Q9Y233). As to the kind of experiment: PDE10 fluorescence polarization (IMAP FP) inhibition assay. It is filed as biochemical. Conditions: human PDE10A2 from transfected AD293 cell lysate, FAM-labeled cAMP 50 nM, room temperature; read-out: PDE10A Ki. Here is the method:
The activity of the compounds in accordance with the present invention as PDE10 inhibitors may be readily determined without undue experimentation using a fluorescence polarization (FP) methodology that is well known in the art (Huang, W., et al., J. Biomol Screen, 2002, 7: 215).
In a typical experiment the PDE10 inhibitory activity of the compounds of the present invention was determined in accordance with the following experimental method. PDE10A2 was amplified from human fetal brain cDNA (Clontech, Mountain View, Calif.) using a forward primer corresponding to nucleotides 56-77 of human PDE10A2 (Accession No. AF127480, Genbank Identifier 4894716), containing a Kozak consensus sequence, and a reverse primer corresponding to nucleotides 2406-2413 of human PDE10A2 (Accession No. AF 127480, Genbank Identifier 4894716). Amplification with Easy-A polymerase (Stratagene, La Jolla, Calif.) was 95° C. for 2 minutes followed by thirty three cycles of 95° C. for 40 seconds, 55° C. for 30 seconds, and 72° C. for 2 minutes 48 seconds. Final extension was 72° C. for 7 minutes. The PCR product was TA cloned into pcDNA3.2-TOPO (Invitrogen, Carlsbad, Calif.) according to standard protocol. AD293 cells with 70-80% confluency were transiently transfected with human PDE10A2/pcDNA3.2-TOPO using Lipofectamine 2000 according to manufacturer specifications (Invitrogen, Carlsbad, Calif.). Cells were harvested 48 hours post-transfection and lysed by sonication (setting 3, 10×5 sec pulses) in a buffer containing 20 mM HEPES, 1 mM EDTA and protease inhibitor cocktail (Roche). Lysate was collected by centrifugation at 75,000×g for 20 minutes. Supernatant containing the cytoplasmic fraction was used for evaluation of PDE10A2 activity. The fluorescence polarization assay for cyclic nucleotide phosphodiesterases was performed using an IMAP® FP kit supplied by Molecular Devices, Sunnyvale, Calif. (product #R8139). IMAP® technology has been applied previously to phosphodiesterase assays (Huang, W., et al., J. Biomol Screen, 2002, 7: 215). Assays were performed at room temperature in 384-well microtiter plates with an incubation volume of 20.2 μL. Solutions of test compounds were prepared in DMSO and serially diluted with DMSO to yield 8 μL of each of 10 solutions differing by 3-fold in concentration, at 32 serial dilutions per plate. 100% inhibition is determined using a known PDE10 inhibitor, which can be any compound that is present at 5,000 times its Ki value in the assay described as follows, such as papaverine (see Siuciak, et al. Neuropharmacology (2006) 51:386-396; Becker, et al. Behav Brain Res (2008) 186(2):155-60; Threlfell, et al., J Pharmacol Exp Ther (2009) 328(3):785-795), 2-{4-[pyridin-4-yl-1-(2,2,2-trifluoroethyl)-1H-pyrazol-3-yl]phenoxymethyl}quinoline succinic acid or 2-[4-(1-methyl-4-pyridin-4-yl-1H-pyrazol-3-yl)-phenoxymethyl]quinoline succinic acid (see Schmidt, et al. J Pharmacol Exp Ther (2008) 325:681-690; Threlfell, et al., J Pharmacol Exp Ther (2009) 328(3): 785-795). 0% of inhibition is determined by using DMSO (1% final concentrations).
A Labcyte Echo 555 (Labcyte, Sunnyvale, Calif.) is used to dispense 200 nL from each well of the titration plate to the 384 well assay plate. A solution of enzyme ( 1/1600 dilution from aliquots; sufficient to produce 20% substrate conversion) and a separate solution of FAM-labeled cAMP PDE from Molecular Devices (product #R7506), at a final concentration of 50 nM are made in the assay buffer (10 mM Tris HCl, pH 7.2, 10 mM MgCl2, 0.05% NaN3 0.01% Tween-20, and 1 mM DTT). The enzyme and the substrate are then added to the assay plates in two consecutive additions of 10 μL, and then shaken to mix. The reaction is allowed to proceed at room temperature for 30 minutes. A binding solution is then made from the kit components, comprised of 80% Solution A, 20% Solution B and binding reagent at a volume of 1/600 the total binding solution. […]
Background: Polarisation of emitted light reports the rotation of a fluorescent probe.
Turning to `Cc1nc(CNc2nc(OC[C@H]3C[C@@H]3c3ccc4ncccc4n3)nc(Cl)c2C)n(C)n1` [Compound 1-49, 2-(((1S,2S)-2-(1,5-naphthyridin-2-yl)cyclopropyl)methoxy)-6-chloro-N-((1,3-dimethyl-1H-1,2,4-triazol-5-yl)methyl)-5-methylpyrimidin-4-amine], the pKi – broadly, −log10 of the Ki, conventionally taken in molar units – was 8.66.

In the case of `Cc1c(Cl)nc(OCCCc2ccc3ncccc3n2)nc1NCc1cnn(C)c1` [Compound 1-21, 6-chloro-5-methyl-N-[(1-methyl-1H-pyrazol-4-yl)methyl]-2-[3-(1,5-naphthyridin-2-yl)propoxy]pyrimidin-4-amine], the pKi is 8.68.

For the compound `CSc1nc(OC[C@H]2C[C@@H]2c2ccccn2)nc(NCc2cnn(C)c2)c1C` (stereo in doubt) [Compound 1-43, 5-methyl-N-((1-methyl-1H-pyrazol-4-yl)methyl)-6-(methylthio)-2-((2-(pyridin-2-yl)cyclopropyl)methoxy)-pyrimidin-4-amine], the pKi was 9.77. For `Cn1cc(CNc2cc(C#N)nc(OC[C@H]3C[C@@H]3c3ccccn3)n2)cn1` (stereo in doubt) [Compound 1-41, 6-((1-methyl-1H-pyrazol-4-yl)methylamino)-2-((2-(pyridin-2-yl)cyclopropyl)methoxy)pyrimidin-4-carbonitrile] the value was 7.46; for `Cc1c(NCc2cnn(C)c2)nc(OC[C@H]2C[C@@H]2c2ccccn2)nc1N(C)C` (stereo in doubt) [Compound 1-44, N4,N4,5-trimethyl-N6-((1-methyl-1H-pyrazol-4-yl)methyl)-2-((2-(pyridin-2-yl)cyclopropyl)methoxy)pyrimidine-4,6-diamine], 7.28.

For `COc1ccc([C@H]2C[C@@H]2COc2nc(Cl)c(C)c(NCc3cnn(C)n3)n2)nc1` [Compound 1-50], the pKi is 9.11. As for `Cc1nc(C)c(CNc2nc(OCCCc3ccc4ccccc4n3)nc(Cl)c2C)s1` [Compound 1-29, 6-chloro-N-[(2,4-dimethyl-1,3-thiazol-5-yl)methyl]-5-methyl-2-(3-quinolin-2-ylpropoxy)pyrimidin-4-amine], the pKi was 11.10.

As for `Cc1nc(C)c(CNc2nc(OC[C@H]3C[C@@H]3c3ccc4ncccc4n3)ncc2C)s1` [Compound 1-45, 2-(((1S,2S)-2-(1,5-naphthyridin-2-yl)cyclopropyl)methoxy)-N-((2,4-dimethylthiazol-5-yl)methyl)-5-methylpyrimidin-4-amine], the pKi is 10.24.

In the case of `Cc1nc(C)c(CNc2nc(OC[C@H]3C[C@@H]3c3ccccn3)nc(-c3ncco3)c2C)s1` (stereo in doubt) [Compound 1-46, N-((2,4-dimethylthiazol-5-yl)methyl)-5-methyl-6-(oxazol-2-yl)-2-((2-(pyridin-2-yl)cyclopropyl)methoxy)-pyrimidin-4-amine], the pKi is 8.19. For `Cc1nc(C)c(CNc2nc(OC[C@H]3C[C@@H]3c3ccccn3)nc(Cl)c2C)s1` (stereo in doubt) [Compound 1-20, 6-chloro-N-[(2,4-dimethyl-1,3-thiazol-5-yl)methyl]-5-methyl-2-{[2-pyridin-2-ylcyclopropyl]methoxy}pyrimidin-4-amine], the negative-log Ki (pKi) was 10.72. For `Cc1nc(C)c(CNc2nc(OC[C@H]3C[C@@H]3c3ccc4ncccc4n3)nc(Cl)c2C)o1` [Compound 1-48, 2-(((1S,2S)-2-(1,5-naphthyridin-2-yl)cyclopropyl)methoxy)-6-chloro-N-((2,4-dimethyloxazol-5-yl)methyl)-5-methylpyrimidin-4-amine] the value was 9.31. For `Cc1nc(C)c(CNc2nc(OCCc3ccccn3)nc(C#N)c2C)s1` [Compound 1-42, 6-((2,4-dimethylthiazol-5-yl)methylamino)-5-methyl-2-(2-(pyridin-2-yl)ethoxy)pyrimidine-4-carbonitrile], the pKi is 7.00. For `Cc1cc(CNc2nc(OC[C@H]3C[C@@H]3c3ccc4ncccc4n3)nc(Cl)c2C)n(C)n1` [Compound 1-51, 2-(((1S,2S)-2-(1,5-naphthyridin-2-yl)cyclopropyl)methoxy)-6-chloro-N-((1,3-dimethyl-1H-pyrazol-5-yl)methyl)-5-methylpyrimidin-4-amine], the negative logarithm of the Ki (pKi) was 11.49. For `Cc1nc(C)c(CNc2nc(OCCOc3ccc4cccnc4n3)nc(Cl)c2C)s1` [Compound 1-32, 6-chloro-N-[(2,4-dimethyl-1,3-thiazol-5-yl)methyl]-5-methyl-2-[2-(1,8-naphthyridin-2-yloxy)ethoxy]pyrimidin-4-amine] the value was 10.40. For `Cc1c(Cl)nc(OC[C@H]2C[C@@H]2c2ccc3ncccc3n2)nc1NCc1nc(C)n(C)n1` [Compound 1-47, 2-(((1S,2S)-2-(1,5-naphthyridin-2-yl)cyclopropyl)methoxy)-6-chloro-N-((1,5-dimethyl-1H-1,2,4-triazol-3-yl)methyl)-5-methylpyrimidin-4-amine] the value was 8.09.

Turning to `Cc1c(Cl)nc(OC[C@@H]2C[C@H]2c2ccccn2)nc1NCc1cnn(C)c1` (stereo in doubt) [Compound 1-39, 6-chloro-5-methyl-N-[(1-methyl-1H-pyrazol-4-yl)methyl]-2-{[2-(pyridin-2-yl)cyclopropyl]methoxy}pyrimidin-4-amine], the pKi was 9.36. The value for `Cc1nc(C)c(CNc2nc(OCCCc3nc4ccccc4[nH]3)nc(Cl)c2C)s1` [Compound 1-27, 2-[3-(1H-benzimidazol-2-yl)propoxy]-6-chloro-N-[(2,4-dimethyl-1,3-thiazol-5-yl)methyl]-5-methylpyrimidin-4-amine] was 10.64.
